# Laboratory results as given in ChEMBL document CHEMBL6092136, “Design, classification, and adverse effects of NSAIDs: A review on recent advancements” (Bioorg Med Chem, 2024).
# How the values were obtained:
# Ovis aries = species on record: Ovis aries; assay: Selectivity index, ratio of IC50 for inhibition of ovine COX-1 to IC50 for inhibition of ovine COX-2
# Rattus norvegicus [1] = assay: Antiinflammatory activity in formalin-induced paw edema in Wistar albino rat model assessed as reduction in paw edema volume at 18 mg/kg, po administered once daily via gavage by 7 days; type: functional; design: scale not given: the % may be the effect or the level left; settings: time 7 day
# [2] = Selectivity index, ratio of IC50 for COX-2 (unknown origin) to IC50 for COX-1 (unknown origin)
# [3] = Inhibition of soya bean 15-LOX by enzyme immune assay; design: species or system Glycine max
# Rattus norvegicus [4] = assay: Acute ulcerogenic activity in Albino Wistar rat assessed as ulcer index at 18 mg/kg via oral gavage once daily for 3 days; type: toxicity, organism-based; settings: in vivo, 72 h, time 3 day
Ratio IC50 (Ovis aries),Structure (SMILES),other results
247,CCOC(=O)c1cnn(C(=O)c2c(C)nn(-c3ccc(S(C)(=O)=O)cc3)c2N)c1N,–
–,CCCn1c(-c2ccc(Cl)cc2)cs/c1=N\NC(=O)Cn1nc(C)cc1C,Activity (Rattus norvegicus [1]): 97.3%
–,COc1ccc2cc(C(C)C(=O)O/N=C(\N)c3ccc(OC)c(OC)c3)ccc2c1 (configuration not stated),Ratio IC50 [2]: 13
247,CCOC(=O)c1c(C)nn(C(=O)c2cnn(-c3ccc(S(C)(=O)=O)cc3)c2N)c1N,–
247,CCOC(=O)c1cnn(C(=O)c2cnn(-c3ccc(S(C)(=O)=O)cc3)c2N)c1N,–
247,CSc1nn(C(=O)c2cnn(-c3ccc(S(C)(=O)=O)cc3)c2N)c(N)c1C#N,–
–,COc1ccc2cc(C(C)C(=O)O/N=C(\N)c3ccc(Cl)cc3)ccc2c1 (configuration not stated),Ratio IC50 [2]: 13
–,Cc1ccc(Cl)c(Nc2ccccc2C(=O)O)c1Cl,IC50 [3]: 5.64 µM
247,CSc1nn(C(=O)c2c(C)nn(-c3ccc(S(N)(=O)=O)cc3)c2N)c(N)c1C#N,–
–,COc1ccc(-n2c(-c3ccc(C)cc3)cs/c2=N\NC(=O)Cn2nc(C)cc2-c2ccc(Cl)cc2)cc1,UI (Rattus norvegicus [4]): 0
–,COc1ccc(/C(N)=N/OC(=O)C(C)c2ccc3cc(OC)ccc3c2)cc1 (configuration not stated),Ratio IC50 [2]: 13
247,Cc1cc(C)n(C(=O)c2cnn(-c3ccc(S(C)(=O)=O)cc3)c2N)n1,–
